The source of these data is patent US4636569A, “Pharmaceutical compositions containing compounds with a flavanone skeleton, process for the preparation of the said compound and novel compounds obtained” (Inverni Della Beffa S.p.A., priority 1983, dated 1987).

A short description of series [1]: Acute toxicity in mice (oral route). Type of series: in vivo. The note with it: mouse, in vivo. The source says:
(§1) ACUTE TOXICITY (LD50 in mice (oral route)

Series [2] has as its system colouring matter excreted in the bronchial liquid. As to the kind of experiment: Expectorant activity in mice (Nawatarih fluorescein method). Type of series: in vivo. To be noted: for ED50: Mus musculus, mice, oral, read-out: ED50 (dose capable of incrementing the excretion of the colouring matter by 50%). Here is the method: The expectorant activity of the compounds of the invention was evaluated by the method of Nawatarih (Kagoshima Daigaku Igaku Zasshi 27, 561, 1976) with fluorescein, according to which the increment of colouring matter excreted in the bronchial liquid is determined experimentally in mice. In the experiments the activity of 6,8-dimethyl-5,7,3',4'-tetrahydroxyflavanone was evaluated in comparison with that of bromhexine hydrochloride as reference standard. The results, given in Table 1, are expressed in ED50 (dose capable of incrementing the excretion of the colouring matter by 50%).

The conditions of series [3]: known flavanones of extractive origin; cited from earlier work.
Series [4] concerns bile flow and excretion of cholate. As to the kind of experiment: Choleretic activity in rats. Type of series: in vivo. The note with it: dose 200 (unit not given); for Bile flow: n=10, controls 2.72 ± 0.11, ** P < 0.01, *** P < 0.001; for Total cholate: n=10, controls 11.64 ± 0.19, ** P < 0.01. The source says:
The choleretic activity, compared to that of catechol, has been determined in rats by measuring both the bile flow and the excretion of cholate (cholic acid).

Series [5] relates to mice. The experiment in a line: Acute toxicity in mice (oral route). Type of series: in vivo. The note with it: no deaths occurred at a dose rate of 3000 mg/kg.
From the text: as §1

In series [6] the test system is amount of expectoration. As to the kind of experiment: Expectorant activity in the rabbit (Perry and Boyd method). Type of series: in vivo. To be noted: Oryctolagus cuniculus, po. Here is the method: The expectorant activity has also been monitored by the Perry and Boyd method (J. Pharmacol. Exp. Ther. 7 580, 1941), in which the direct amount of expectoration is determined in the rabbit.

Series [7] relates to olive oil induced hyperlipaemia. As to the kind of experiment: Hypolipaemic activity in rats (olive oil induced hyperlipaemia). The note with it: for Triglycerides / NEFA: n=6, m ± ES; for Triglycerides: controls 252 ± 18; for NEFA: controls 1017 ± 39. It is filed as in vivo. On the procedure:
The hypolipaemia-producing activity was evaluated in other tests in which the variations in cholesterol, triglycerides, NEFA (non-esterified fatty acids) and various lipoprotein fractions were determined.
In Table 3 there is reported the effect of 6,8-dimethyl-5,7,4'-trihydroxyflavanone and of nicotinic acid in combatting olive oil induced hyperlipaemia in rats fasted for 16 hours. The substances under test were administered orally two hours before the lipid load and the hyperlipaemia was induced by administering orally 20 ml/kg of olive oil.
Sacrifice took place three hours after the administration of the oil.

Counter-ions that a name gives are not always drawn.

Consider `CN(Cc1cc(Br)cc(Br)c1N)C1CCCCC1` [Bromhexine HCl, bromhexine hydrochloride], for which, in series [1], the LD50 came out at 2140 mg/kg. For the same compound, the ED50 in series [2] is 51 mg/kg.
With `O=C1C[C@@H](c2ccc(O)c(O)c2)Oc2cc(O)cc(O)c21` [eriodictyol], the “expectorant and mucolytic activity” value in series [3] was “display expectorant and mucolytic activity”.
In series [4], `Oc1ccccc1O` [(+) Catechol, catechol] returned a Bile flow of 4.13 ± 0.4 ml/4 h and a Total cholate of 13.03 ± 0.35 mg/4 h.
On to `Cc1c(O)c(C)c2c(c1O)C(=O)C[C@@H](c1ccc(O)cc1)O2` [farrerol], for which the “expectorant and mucolytic activity” value in series [3] is “display expectorant and mucolytic activity”.
Turning to `Cc1c(O)c(C)c2c(c1O)C(=O)CC(c1ccc(O)c(O)c1)O2` (stereo not shown) [6,8-dimethyl-5,7,3',4'-tetrahydroxyflavanone], the LD0 in series [5] was 3000 mg/kg. The 50% effective dose (ED50) worked out at 78 mg/kg in series [2] and 200 mg/kg in series [6]. For the same compound, the therapeutic index result in series [2] (vs bromhexine, from ED50 and acute oral toxicity in mice) is reported as “distinctly more favourable than that of bromhexine”.
In series [7] (173 mg/kg os), `O=C(O)c1cccnc1` [Nicotinic acid, nicotinic acid] displayed a Triglycerides of 71 ± 6 mg/100 ml and an NEFA of 709 ± 33 uEq/1. In addition, in series [7] (173 mg/kg os, vs controls), the “NEFA, change (in parentheses)” value is listed as -30 and the “Triglycerides, change (in parentheses)” value is given as -72.
Take `Cc1c(O)c(C)c2c(c1O)C(=O)CC(c1ccc(O)cc1)O2` (stereo not shown) [6,8-Dimethyl-5,7,4'-trihydroxyflavanone, 6,8-dimethyl-5,7,4'-trihydroxyflavanone]: in series [7] (50 mg/kg os), the Triglycerides came out at 198 ± 7 mg/100 ml and the NEFA came out at 702 ± 23 uEq/1. Moreover, the “NEFA, change (in parentheses)” value in series [7] (50 mg/kg os, vs controls) is -31. In series [4], this compound yielded a Bile flow of 5.25 ± 0.18 ml/4 h and a Total cholate of 15.23 ± 0.97 mg/4 h.

By LD50 is commonly meant the dose at which mortality reaches 50%. The low end stands for greater toxicity, the high end for lower toxicity. For orientation: ED50 means the dose at which the effect has come halfway, by size or by number of responders.
